# Measured values published in PMC7382501 (Nature Communications, 2020).
# Legend:
# FasRF123A = FasRF123A (Mycobacterium tuberculosis, UniProt O05858, F123A); assay type: binding
# FasRLVL = FasRLVL (Mycobacterium tuberculosis, UniProt O05858, L106F/L185F/V163F); assay type: biochemical
# FasRL106F = FasRL106F (Mycobacterium tuberculosis, UniProt O05858, L106F); assay type: biochemical
compound,measurement,setting,value
"CCCCCCCCCCCCCCCCCCCC(=O)SCCNC(=O)CCNC(=O)[C@H](O)C(C)(C)COP(=O)(O)OP(=O)(O)OC[C@H]1O[C@@H](n2cnc3c(N)ncnc32)[C@H](O)[C@@H]1OP(=O)(O)O [C20-CoA, arachidoyl-CoA]",SPR association of FasRF123A to C20-CoA compared with FasRwt,FasRF123A,comparable association kinetics
same,protein–DNA complex in the presence of ligand,FasRLVL,remained bound to DNA
same,acyl-CoA concentration at which the protein–DNA complex dissociates,FasRL106F,> 4 µM
